Measured values as given in PubChem BioAssay (NCI).
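Exposure lasted 48 hours, with cells grown in 96-well plates and compounds tested at five concentrations. TGI is the concentration that stops growth completely.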

Columns and labels:
Assay in all cases: growth of human tumour cells (NCI), 48 h
[1] = tested on: TK-10 renal
[2] = tested on: SW-620 colon
[3] = tested on: CAKI-1 renal
[4] = tested on: HCC-2998 colon
[5] = tested on: SF-539 CNS
[6] = tested on: CCRF-CEM leukemia
[7] = tested on: K-562 leukemia
[8] = tested on: A498 renal
[9] = tested on: UO-31 renal
[10] = tested on: T-47D breast
[11] = tested on: NCI-H23 lung
[12] = tested on: 786-0 renal
[13] = tested on: HL-60(TB) leukemia
[14] = tested on: ACHN renal
[15] = tested on: SK-MEL-2 melanoma
[16] = tested on: SNB-19 CNS
[17] = tested on: MCF7 breast
[18] = tested on: SK-MEL-5 melanoma
[19] = tested on: BT-549 breast
[20] = tested on: NCI-H226 lung
[21] = tested on: SR leukemia
[22] = tested on: COLO 205 colon
[23] = tested on: HOP-62 NSCLC
[24] = tested on: MDA-MB-231 breast
[25] = tested on: A549 NSCLC
[26] = tested on: PC-3 prostate
[27] = tested on: HCT-15 colon
[28] = tested on: OVCAR-8 ovarian
[29] = tested on: HS 578T breast
[30] = tested on: NCI-H522 lung
[31] = tested on: OVCAR-5 ovarian
[32] = tested on: EKVX NSCLC
[33] = tested on: DU-145 prostate
[34] = tested on: SF-295 CNS
[35] = tested on: MDA-MB-435
[36] = tested on: SN12C renal
[37] = tested on: RXF 393 renal
[38] = tested on: HT29 colon
[39] = tested on: SF-268 CNS
[40] = tested on: UACC-62 melanoma
[41] = tested on: SK-MEL-28 melanoma
[42] = tested on: M14 melanoma
[43] = tested on: LOX IMVI melanoma
[44] = tested on: KM12 colon
[45] = tested on: IGROV1 ovarian
[46] = tested on: MALME-3M melanoma
[47] = tested on: U251 CNS
[48] = tested on: RPMI-8226 leukemia
[49] = tested on: NCI/ADR-RES ovarian
[50] = tested on: UACC-257 melanoma
[51] = tested on: OVCAR-3 ovarian
[52] = tested on: HCT-116 colon

SMILES: BrP(NC1CCCCCC1)(c1ccccc1)(c1ccccc1)c1ccccc1
- TGI [1]: 21.3 µM
- TGI [2]: 13.6 µM
- TGI [3]: 13 µM
- TGI [4]: 6.49 µM
- TGI [5]: 34.4 µM
- TGI [6]: 29 µM
- TGI [7]: > 100 µM
- TGI [8]: 7.26 µM
- TGI [9]: 17.4 µM
- TGI [10]: 7.76 µM
- TGI [11]: 27.4 µM
- TGI [12]: 32.3 µM
- TGI [13]: 13.8 µM
- TGI [14]: 9.12 µM
- TGI [15]: 8.53 µM
- TGI [16]: 16.8 µM
- TGI [17]: 6.26 µM
- TGI [18]: 3.18 µM
- TGI [19]: 9.57 µM
- TGI [20]: 33 µM
- TGI [21]: > 100 µM
- TGI [22]: 5.4 µM
- TGI [23]: 35.5 µM
- TGI [24]: 16 µM
- TGI [25]: 25.8 µM
- TGI [26]: 5.53 µM
- TGI [27]: 46.3 µM
- TGI [28]: 10.7 µM
- TGI [29]: 12.4 µM
- TGI [30]: 8.5 µM
- TGI [31]: 52.7 µM
- TGI [32]: 35.4 µM
- TGI [33]: 29.9 µM
- TGI [34]: 12.2 µM
- TGI [35]: 7.63 µM
- TGI [36]: 16.1 µM
- TGI [37]: 5.57 µM
- TGI [38]: 4.66 µM
- TGI [39]: 11.1 µM
- TGI [40]: 15.9 µM
- TGI [41]: 6.62 µM
- TGI [42]: > 100 µM
- TGI [43]: 10.4 µM
- TGI [44]: 3.37 µM
- TGI [45]: 21.7 µM
- TGI [46]: 12.5 µM
- TGI [47]: 13.4 µM
- TGI [48]: 5.41 µM
- TGI [49]: > 100 µM
- TGI [50]: 6.3 µM
- TGI [51]: 9.94 µM
- TGI [52]: > 100 µM
